Entries after “also recorded” stand apart in the source; their conditions may differ.
How the values were obtained:
Format in all cases: cell-based, human
vector-expressing MCF7 = assay: Cell proliferation (MTS / cell numbers) of vector-expressing MCF7
Procedure: (§1) A: Whole cell lysates from vector, WBP2-WT, WBP2-Y192-231E mutant and WBP2-Y192-231F mutant expressing MCF7 or Y192-231E mutant expressing MCF7 with WBP2 knockdown were used for IB analysis with antibodies indicated. B: Vector, WBP2-WT, WBP2-Y192-231E mutant or WBP2-Y192-231F mutant-expressing MCF7 were co-transfected with TOPFlash (top panel) or ERE-Luciferase (bottom panel) reporter construct. For cells co-transfected ERE-luciferase, they were either left alone or stimulated with 50 ng/ml Wnt3a ligand for 16 hrs. TCF/ERα luciferase activities in various conditions were then assayed. **P<0.01, ***P<0.001, Student's t-test (2-tailed). C: Vector or WBP2-Y192-231E mutant-expressing MCF7 were treated with indicated concentrations of Tamoxifen(Tam) and/or FH535. Cell numbers were measured. D: Whole cell lysates from WBP2-Y192-231E mutant-expressing MCF7 treated with 2 μM Tam and/or 15 μM FH5353 were harvested at day 2-4 post-treatment and used for IB analysis with antibodies indicated.
Whole cell lysates from vector, WBP2-WT, WBP2-Y192-231E mutant and WBP2-Y192-231F mutant expressing MCF7 (A) or Y192-231E mutant expressing MCF7 with WBP2 knockdown (B) were used for IB analysis with antibodies indicated. Their expression levels were quantified in three independent experiments and the averages were presented relative to actin. Representative blots (order in lanes from left to right: vector, WBP2, Y192-231E, Y192F) were presented as insets to the bar graphs. **P<0.01, ***P<0.001, Student's t-test (2-tailed) relative to vector. […] TCF(C)/ER[…](D) luciferase activities in various conditions were then assayed and analyzed in relative to untreated vector control. **P<0.01, ***P<0.001, Student's t-test (2-tailed). […] Cell numbers were measured daily and compared in relative to vehicle treated vector-expressing cells on Day 0. […] Cell numbers were measured and compared in relative to vehicle-treated cells. Their […] were analyzed statistically with SPSS 13.0. […] Cell numbers were measured on day 2 and day 4 and compared in relative to vehicle-treated control at each day (Top Panel). […]

ERα = assay: Immunoblot of ERα expression in drug-treated WBP2-Y192-231E mutant-expressing MCF7; conditions: Y192-231E-expressing MCF7; 2 μM Tam and/or 15 μM FH535; day 2-4 post-treatment
Procedure: For cells co-transfected ERE-luciferase, they were either left alone or stimulated with 50 ng/ml Wnt3a ligand for 16 hrs. TCF/ERα luciferase activities in various conditions were then assayed. **P<0.01, ***P<0.001, Student's t-test (2-tailed). […] Cell numbers were measured.
Their expression levels were quantified in three independent experiments and the averages were presented relative to actin. […] For cells co-transfected ERE luciferase, they were either left alone or stimulated with 50 ng/ml Wnt3a ligand for 16 hrs. TCF(C)/ER[…](D) luciferase activities in various conditions were then assayed and analyzed in relative to untreated vector control. **P<0.01, ***P<0.001, Student's t-test (2-tailed). […] Cell numbers were measured daily and compared in relative to vehicle treated vector-expressing cells on Day 0. […] Cell numbers were measured and compared in relative to vehicle-treated cells. […] Cell numbers were measured on day 2 and day 4 and compared in relative to vehicle-treated control at each day (Top Panel). These treated cells were harvested for IB analysis with antibodies indicated (Bottom Panel).
First, we exposed WBP2 phospho-mimic expressing MCF7 cells to serial concentrations of fulvestrant (0.1 nM, 1 nM, 10 nM, 100 nM and 1 μM) and probed for ERα expression to determine the effective working concentration. […] Next, we compared the growth and proliferation of WBP2 phospho-mimic mutant expressing MCF7 in the presence of 100 nM fulvestrant or 15 μM FH535.

WBP2 = assay: Immunoblot of WBP2 expression in drug-treated WBP2-Y192-231E mutant-expressing MCF7; conditions: Y192-231E-expressing MCF7; 15 μM FH535; day 2-4 post-treatment
Procedure: as §1, with “C: Vector or WBP2-Y192-231E mutant-expressing MCF7 were treated with indicated concentrations of Tamoxifen(Tam) and/or FH535.” left out, “D: Whole cell lysates from WBP2-Y192-231E mutant-expressing MCF7 treated with 2 μM Tam and/or 15 μM FH5353 were harvested at day 2-4 post-treatment and used for IB analysis with antibodies indicated.” left out
Whole cell lysates from vector, WBP2-WT, WBP2-Y192-231E mutant and WBP2-Y192-231F mutant expressing MCF7 (A) or Y192-231E mutant expressing MCF7 with WBP2 knockdown (B) were used for IB analysis with antibodies indicated. Their expression levels were quantified in three independent experiments and the averages were presented relative to actin. […] TCF(C)/ER[…](D) luciferase activities in various conditions were then assayed and analyzed in relative to untreated vector control. **P<0.01, ***P<0.001, Student's t-test (2-tailed). […] Cell numbers were measured daily and compared in relative to vehicle treated vector-expressing cells on Day 0. […] Cell numbers were measured and compared in relative to vehicle-treated cells. […]

**Q.** Which results are given for `Cc1cc([N+](=O)[O-])ccc1NS(=O)(=O)c1cc(Cl)ccc1Cl` [FH535]?
**A.** inhibition of growth / reduction of proliferation (vector-expressing MCF7; MCF7 cells expressing vector, day 4, 100 nM fulvestrant or 15 μM FH535): about 30%; growth inhibition, dose dependence (vector-expressing MCF7; vector stable transfectant, 0-50 μM FH535 for 2 days): dose dependent growth inhibition; ERα expression (ERα): significantly reduced; also recorded: reducing; WBP2 expression (WBP2): without affecting
